Reference: patent US8232288B2, “Substituted benzimidazoles, benzothiazoles and benzoxazoles” (Gruenenthal GmbH, priority 2009, dated 2012)

How the values were obtained:
[1] = target: T1, B1R receptor of the rat (rB1R) (Rattus norvegicus, UniProt P97583); assay: Functional investigation on the bradykinin receptor 1 (B1R), FLIPR Ca2+ assay, rB1R cells; assay type: cell-based
T1 construct: expressed in transfected cells; host or cells: CHO K1 cells
T1 sequence (P97583 1-337): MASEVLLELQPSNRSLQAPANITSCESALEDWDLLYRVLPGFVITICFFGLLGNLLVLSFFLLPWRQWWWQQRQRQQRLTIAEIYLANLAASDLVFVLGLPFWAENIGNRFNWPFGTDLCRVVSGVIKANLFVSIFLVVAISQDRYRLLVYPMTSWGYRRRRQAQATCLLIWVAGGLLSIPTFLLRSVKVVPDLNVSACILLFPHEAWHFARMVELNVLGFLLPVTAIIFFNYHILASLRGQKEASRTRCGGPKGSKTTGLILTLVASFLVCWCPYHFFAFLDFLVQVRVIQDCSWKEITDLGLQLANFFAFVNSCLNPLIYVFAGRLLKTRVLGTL
Protocol: (§1) The agonistic or antagonistic action of substances can be quantified on the bradykinin receptor 1 (B1R) of the human and rat species with ectopically expressing cell lines (CHO K1 cells) and with the aid of a Ca^2+-sensitive dyestuff (Fluo-4) in a fluorescent imaging plate reader (FLIPR). The figure in % activation is based on the Ca^2+ signal after addition of Lys-Des-Arg^9-bradykinin (0.5 nM) or Des-Arg^9-bradykinin (100 nM). Antagonists lead to a suppression of the Ca^2+ inflow after addition of the agonist. % inhibition compared with the maximum achievable inhibition is stated.
(§2) The agonistic or antagonistic action of substances can be determined on the bradykinin receptor 1 (B1R) of the human and rat species with the following assay. In accordance with this assay, the Ca^2+ inflow through the channel is quantified with the aid of a Ca^2+-sensitive dyestuff (type Fluo-4, Molecular Probes Europe BV, Leiden Holland) in a fluorescent imaging plate reader (FLIPR, Molecular Devices, Sunnyvale, USA).
(§3) Chinese hamster ovary cells (CHO K1 cells) transfected stably with the human B1R gene (hB1R cells) or the B1R gene of the rat (rB1R cells) are used. For functional studies, these cells are plated out on black 96-well plates with a clear base (BD Biosciences, Heidelberg, Germany or Greiner, Frickenhausen, Germany) in a density of 20,000-35,000 cells/well. The cells are left overnight at 37° C. and 5% CO2 in culture medium (hB1R cells: Nutrient Mixture Ham's F12, Gibco Invitrogen GmbH, Karlsruhe, Germany or DMEM, Sigma-Aldrich, Taufkirchen, Germany; rB1R cells: D-MEM/F12, Gibco Invitrogen GmbH, Karlsruhe, Germany) with 10 vol. % FBS (foetal bovine serum, Gibco Invitrogen GmbH, Karlsruhe, Germany or PAN Biotech GmbH, Aidenbach, Germany). On the following day, the cells are loaded for 60 min at 37° C. with 2.13 μM Fluo-4 (Molecular Probes Europe BV, Leiden Holland) in HBSS buffer (Hank's buffered saline solution, Gibco Invitrogen GmbH, Karlsruhe, Germany) with 2.5 mM probenecid (Sigma-Aldrich, Taufkirchen, Germany) and 10 mM HEPES (Sigma-Aldrich, Taufkirchen, Germany). The plates are then washed 2× with HBSS buffer, and HBSS buffer which additionally contains 0.1% BSA (bovine serum albumin; Sigma-Aldrich, Taufkirchen, Germany), 5.6 mM glucose and 0.05% gelatine (Merck KGaA, Darmstadt, Germany) is added. After a further incubation of 20 minutes at room temperature, the plates are inserted into the FLIPR for the Ca^2+ measurement.
(§4) Alternatively, the plates are washed with buffer A (15 mM HEPES, 80 mM NaCl, 5 mM KCl, 1.2 mM CaCl2, 0.7 mM MgSO4, 2 g/l glucose, 2.5 mM probenecid), buffer A is added and the plates are loaded with 2.5 μM Fluo-4 and 0.025% Pluronic F127 (Sigma-Aldrich, Taufkirchen, Germany). Thereafter, the cells are washed 2× with buffer A and incubated for 30 minutes at room temperature with buffer A, which additionally contains 0.05% BSA and 0.05% gelatine, and thereafter inserted into the FLIPR for the Ca^2+ measurement.
(§5) The Ca^2+-dependent fluorescence is measured here before and after addition of substances (λex=488 nm, λem=540 nm). Quantification is by measurement of the highest fluorescence intensity (FC, fluorescence counts) over time.
(§6) The FLIPR protocol consists of 2 additions of substance. Test substances (10 μM) are first pipetted on to the cells and the Ca^2+ inflow is compared with the control (hB1R: Lys-Des-Arg^9-bradykinin>=50 nM; rB1R: Des-Arg^9-bradykinin 10 μM). This gives the result in % activation based on the Ca^2+ signal after addition of Lys-Des-Arg^9-bradykinin (>=50 nM) or Des-Arg^9-bradykinin (10 μM). After incubation for 10-20 minutes, Lys-Des-Arg^9-bradykinin (hB1R) or Des-Arg^9-bradykinin (rB1R) in the concentration of the EC80 is applied and the inflow of Ca^2+ is likewise determined. Antagonists lead to a suppression of the Ca^2+ inflow. % inhibition compared with the maximum achievable inhibition is calculated.
(§7) In order to determine the IC50 value, the substances are added in various concentrations. […]

[2] = target: T2, human B1R receptor (hB1R) (Homo sapiens, UniProt P46663); assay: Functional investigation on the bradykinin receptor 1 (B1R), FLIPR Ca2+ assay, hB1R cells; assay type: cell-based
T2 construct: expressed in transfected cells; host or cells: CHO K1 cells
T2 sequence (P46663 1-353): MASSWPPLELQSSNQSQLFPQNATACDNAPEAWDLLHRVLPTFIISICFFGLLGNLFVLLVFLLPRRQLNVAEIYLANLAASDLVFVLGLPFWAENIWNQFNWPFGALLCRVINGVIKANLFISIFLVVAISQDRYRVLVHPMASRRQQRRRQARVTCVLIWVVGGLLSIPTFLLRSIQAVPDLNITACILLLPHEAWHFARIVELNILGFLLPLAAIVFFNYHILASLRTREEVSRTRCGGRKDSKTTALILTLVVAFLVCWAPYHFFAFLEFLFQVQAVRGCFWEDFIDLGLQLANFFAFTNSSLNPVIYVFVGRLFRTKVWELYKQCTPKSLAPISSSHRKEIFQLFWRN
Protocol: as §1, §2, §3, §4, §5, §6, §7

| SMILES | inhibition at 10 µM [1] [%] | inhibition at 10 µM [2] [%] |
| --- | --- | --- |
| Cc1cc(S(=O)(=O)N(C)Cc2nc3cccc(C(=O)N4CCC5(CC4)CCN(c4ccncc4)CC5)c3[nH]2)c(C)cc1Cl [I_CC-01, 4-chloro-N,2,5-trimethyl-N-[[7-(3-pyridin-4-yl-3,9-diazaspiro[5.5]undecane-9-carbonyl)-1H-benzoimidazol-2-yl]-methyl]-benzenesulfonic acid amide] | 92 | 96 |
| CN(Cc1nc2cccc(C(=O)N3CCC4(CC3)C(=O)NCC4c3ccncc3)c2[nH]1)C(=O)c1ccccc1Cl (stereo not drawn) [I_CC-02, 2-chloro-N-methyl-N-[[7-(4-oxo-1-pyridin-4-yl-3,8-diazaspiro[4.5]decane-8-carbonyl)-1H-benzoimidazol-2-yl]-methyl]-benzamide] | 46 | 10 |
| COc1cc(C)c(S(=O)(=O)N(C)Cc2nc3cccc(C(=O)N4CCC5(CC4)CCN(c4ccncc4)CC5)c3[nH]2)c(C)c1 [I_CC-03, 4-methoxy-N,2,6-trimethyl-N-[[7-(3-pyridin-4-yl-3,9-diazaspiro[5.5]undecane-9-carbonyl)-1H-benzoimidazol-2-yl]-methyl]-benzenesulfonic acid amide] | 100 | 100 |
| CN(Cc1nc2cccc(C(=O)N3CCC4(CC3)CCN(c3ccncc3)CC4)c2[nH]1)C(=O)c1ccccc1Cl [I_CC-04, 2-chloro-N-methyl-N-[[7-(3-pyridin-4-yl-3,9-diazaspiro[5.5]undecane-9-carbonyl)-1H-benzoimidazol-2-yl]-methyl]-benzamide] | 102 | 65 |
| CN(Cc1nc2cccc(C(=O)N3CCC4(CC3)CCN(c3ccncc3)CC4)c2[nH]1)C(=O)c1sccc1Cl [I_CC-05, 3-chloro-N-methyl-N-[[7-(3-pyridin-4-yl-3,9-diazaspiro[5.5]undecane-9-carbonyl)-1H-benzoimidazol-2-yl]-methyl]-thiophene-2-carboxylic acid amide] | 93 | 30 |
| COc1cc(C)c(S(=O)(=O)N(C)Cc2nc3cccc(C(=O)N4CCC5(CC4)CCN(c4ccncc4)C5)c3[nH]2)c(C)c1 [I_CC-06, 4-methoxy-N,2,6-trimethyl-N-[[7-(3-pyridin-4-yl-3,8-diazaspiro[4.5]decane-8-carbonyl)-1H-benzoimidazol-2-yl]-methyl]-benzenesulfonic acid amide] | 102 | 100 |
| Cc1cccc(Cl)c1S(=O)(=O)N(C)Cc1nc2cccc(C(=O)N3CCC4(CC3)CCN(c3ccncc3)C4)c2[nH]1 [I_CC-07, 2-chloro-N,6-dimethyl-N-[[7-(3-pyridin-4-yl-3,8-diazaspiro[4.5]decane-8-carbonyl)-1H-benzoimidazol-2-yl]-methyl]-benzenesulfonic acid amide] | 97 | 100 |
| CN(Cc1nc2cccc(C(=O)N3CCC4(CC3)CCN(c3ccncc3)C4)c2[nH]1)C(=O)c1ccccc1Cl [I_CC-08, 2-chloro-N-methyl-N-[[7-(3-pyridin-4-yl-3,8-diazaspiro[4.5]decane-8-carbonyl)-1H-benzoimidazol-2-yl]-methyl]-benzamide] | 64 | 26 |
| CN(Cc1nc2cccc(C(=O)N3CCC4(CC3)CCN(c3ccncc3)C4)c2[nH]1)C(=O)c1sccc1Cl [I_CC-09, 3-chloro-N-methyl-N-[[7-(3-pyridin-4-yl-3,8-diazaspiro[4.5]decane-8-carbonyl)-1H-benzoimidazol-2-yl]-methyl]-thiophene-2-carboxylic acid amide] | 58 | 15 |
| Cc1cc(S(=O)(=O)N(C)Cc2nc3cccc(C(=O)N4CCC5(CC4)CCN(c4ccncc4)C5)c3[nH]2)c(C)cc1Cl [I_CC-10, 4-chloro-N,2,5-trimethyl-N-[[7-(3-pyridin-4-yl-3,8-diazaspiro[4.5]decane-8-carbonyl)-1H-benzoimidazol-2-yl]-methyl]-benzenesulfonic acid amide] | 88 | 94 |
| Cc1cccc(Cl)c1S(=O)(=O)N(C)Cc1nc2cccc(C(=O)N3CCC4(CC3)CCN(c3ccncc3)CC4)c2[nH]1 [I_CC-11, 2-chloro-N,6-dimethyl-N-[[7-(3-pyridin-4-yl-3,9-diazaspiro[5.5]undecane-9-carbonyl)-1H-benzoimidazol-2-yl]-methyl]-benzenesulfonic acid amide] | 91 | 98 |
| O=C1c2c(Cl)cccc2CN1Cc1nc2cccc(C(=O)N3CCC4(CC3)CCN(c3ccncc3)CC4)c2[nH]1 [I_CC-12, 7-chloro-2-[[7-(3-pyridin-4-yl-3,9-diazaspiro[5.5]undecane-9-carbonyl)-1H-benzoimidazol-2-yl]-methyl]-2,3-dihydro-isoindol-1-one] | 101 | 100 |
| O=C1c2c(Cl)cccc2CN1Cc1nc2cccc(C(=O)N3CCC4(CC3)CCN(c3ccncc3)C4)c2[nH]1 [I_CC-13, 7-chloro-2-[[7-(3-pyridin-4-yl-3,8-diazaspiro[4.5]decane-8-carbonyl)-1H-benzoimidazol-2-yl]-methyl]-2,3-dihydro-isoindol-1-one] | 49 | 71 |
| COc1cc(C)c(S(=O)(=O)N(C)c2nc3cccc(C(=O)N4CCC5(CC4)CCN(c4ccncc4)CC5)c3n2C)c(C)c1 [I_CC-14, 4-methoxy-N,2,6-trimethyl-N-[1-methyl-7-(3-pyridin-4-yl-3,9-diazaspiro[5.5]undecane-9-carbonyl)-1H-benzoimidazol-2-yl]-benzenesulfonic acid amide] | 90 | 96 |
| COc1cc(C)c(S(=O)(=O)N(C)c2nc3cccc(C(=O)N4CCC5(CC4)CCN(c4ccncc4)C5)c3n2C)c(C)c1 [I_CC-15, 4-methoxy-N,2,6-trimethyl-N-[1-methyl-7-(3-pyridin-4-yl-3,8-diazaspiro[4.5]decane-8-carbonyl)-1H-benzoimidazol-2-yl]-benzenesulfonic acid amide] | 99 | 97 |
